Results published in PMC4698308, “A new amino acid substitution (Ala-205-Phe) in acetolactate synthase (ALS) confers broad spectrum resistance to ALS-inhibiting herbicides” (Planta, 2015).
Like-named read-outs stand apart in the source and are kept apart here.

Experiments:
[1] = molecular target: T1, recombinant Arabidopsis thaliana ALS wild-type enzyme (WT—sensitive) (Arabidopsis thaliana, UniProt P17597); assay: biochemical
T1 construct: Protein constructs contained an 85 amino acid N-terminal deletion (chloroplast transit peptide); Hexa-histidine tag (N); made in house
T1 sequence (P17597 86-670): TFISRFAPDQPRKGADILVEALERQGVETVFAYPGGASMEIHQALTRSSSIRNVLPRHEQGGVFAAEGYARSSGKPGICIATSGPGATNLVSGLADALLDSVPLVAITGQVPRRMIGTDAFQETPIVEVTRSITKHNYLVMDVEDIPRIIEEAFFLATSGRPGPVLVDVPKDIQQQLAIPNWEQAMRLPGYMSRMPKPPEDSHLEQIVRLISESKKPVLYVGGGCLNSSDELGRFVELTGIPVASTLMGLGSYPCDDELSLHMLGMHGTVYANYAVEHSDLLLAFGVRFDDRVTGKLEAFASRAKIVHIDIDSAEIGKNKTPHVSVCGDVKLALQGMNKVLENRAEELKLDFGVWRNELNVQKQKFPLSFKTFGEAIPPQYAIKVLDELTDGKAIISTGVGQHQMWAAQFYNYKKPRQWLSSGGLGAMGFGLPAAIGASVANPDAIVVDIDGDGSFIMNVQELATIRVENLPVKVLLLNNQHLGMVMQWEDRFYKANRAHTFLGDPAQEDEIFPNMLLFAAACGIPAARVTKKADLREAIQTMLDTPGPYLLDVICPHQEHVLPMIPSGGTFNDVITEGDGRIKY
Protocol: (§1) Effects of SNPs identified in sequencing analysis on ALS activity were studied using A. thaliana. The ALS gene from A. thaliana and derivatives thereof were de novo synthesized and subcloned into pET-24d(+) (Life Technologies. Grand Island, NY, USA) using NcoI and XhoI restriction sites. Protein constructs contained an 85 amino acid N-terminal deletion (chloroplast transit peptide) and the addition of an N-terminal Hexa-histidine tag to facilitate purification.
(§2) Lysis was performed by at least two passes through a fluidizer, followed by centrifuging at 80000×g for 30 min at 4 °C. […] Fractions containing ALS protein were pooled and stored at −20 °C.
(§3) Inhibitors, purchased from Sigma as Pestanal standards (Sigma-Aldrich, Deisenhofen, Germany), were dissolved in DMSO and added to the reaction mixture. Inhibitors evaluated included imidazolinone, sulfonylurea, triazolopyrimidines, sulfonylamino-carbonyl- triazolinones, and pyrimidinyl (thio) benzoate herbicides. The reaction mixture was incubated at 30 °C for 60 min and stopped with 70 µl of H2SO4 (3 M). The reaction was then heated to 56 °C for 15 min to convert acetolactate into acetoin. […] For each inhibitor, resistance factors were calculated by dividing IC50 values for mutant and sensitive ALS.

[2] = system: recombinant Arabidopsis thaliana ALS variant A205F; format: biochemical; details: IC50 mutant divided by IC50 sensitive ALS; max inhibitor concentration 1.00 × 10^−04 M
Protocol: as §1, §2, §3

[3] = system: recombinant Arabidopsis thaliana ALS variant A205V; format: biochemical; details: IC50 mutant divided by IC50 sensitive ALS; max inhibitor concentration 1.00 × 10^−04 M
Protocol: as §1, §2, §3

[4] = system: recombinant Arabidopsis thaliana ALS variant W574L; format: biochemical; details: IC50 mutant divided by IC50 sensitive ALS; max inhibitor concentration 1.00 × 10^−04 M
Protocol: as §1, §2, §3

[5] = system: annual bluegrass (Poa annua L.); assay: Whole plant confirmation of target-site resistance (visual control and dry biomass 28 days after treatment); format: in vivo
Protocol: Progeny of all POAAN-R3 plants subjected to genetic sequencing (RP1–RP8) were surface seeded into separate 10.2 × 10.2 cm greenhouse pots (Dillen Products/Myers Industries, Inc. Middlefield, OH, USA.) filled with a peat moss growing medium (ProMix BX Mycorrhizae. Premier Tech Horticulture, Quakertown, PA, USA) on 5 January 2015. The susceptible annual bluegrass population (S) included in our sequencing analysis was also seeded in the same fashion.
After seeding, pots were placed inside a growth chamber (Conviron A1000. Controlled Environments Inc, Hendersonville, NC) configured to provide 14 h day at 19 °C and a 10 h night at 10 °C. Light intensity inside the chamber averaged 296 μmol m^−2 s^−1. Irrigation was applied to each pot daily using distilled water and a misting nozzle. Annual bluegrass emergence was first noted on 16 January 2015. Plants remained inside the growth chamber until 26 January 2015. On this date, seedlings of each plant (RP1–RP8, S) were transplanted into individual 164 cm^3 plastic conical containers (SC10 Super Cell Cone-tainer. Stuewe and Sons. Tangent, OR 97389) filled with Sequatchie silt loam (fine-loamy, siliceous, semiactive, thermic humic Hapludult) measuring 6.2 in soil pH and 2.1 % in organic matter content. Transplants were replicated such that 32 plastic conical containers were created for each annual bluegrass plant analyzed in previous experiments (RP1–RP8, S). Immediately after transplanting, plastic conical containers were placed in a glasshouse located at the University of Tennessee (Knoxville, TN, USA; 35.56, 83.56). Peak light intensity in this glasshouse averaged 714 μmol m^−2 s^−1 with day/night temperatures averaging 27/17 °C. Irrigation was applied daily using an overhead misting system and plants were not clipped prior to initiating this study.
Plants were allowed to acclimate to this glasshouse environment for 10 days prior to being treated with foramsulfuron (Revolver. Bayer Environmental Sciences. Research Triangle Park, NC, USA) at 29 g ha^−1, imazamox (Clearcast. BASF Corporation. Research Triangle Park, NC) at 140 g ha^−1, or simazine (Princep 4L. Syngenta Professional Products. Greensboro, NC) at 1120 g ha^−1. Per label recommendations, imazamox and simazine treatments included a non-ionic surfactant (Activator-90. Loveland Products Inc. Greeley, CO, USA) at 0.25 % v/v. All treatments were applied in an enclosed spray chamber (Generation III track sprayer. DeVries Manufacturing, Hollandale, MN, USA) using a water carrier at 215 L ha^−1 through an 8004 EVS nozzle (TeeJet, Technologies, Spraying Systems Co., Glendale Heights, IL, USA). These herbicide treatments were selected to confirm results of genetic sequencing that RP1–RP8 were resistant to sulfonylurea, imidazolinone, and photosystem II inhibiting herbicides. A non-treated control treatment was included with each resistant (RP1–RP8) and susceptible (S) plant for comparison. Herbicides were applied on 5 February 2015 when plants were at a two-to-three leaf stage, prior to annual bluegrass tiller formation.
Annual bluegrass control was visually assessed on a 0 (i.e., no control) to 100 % (i.e., complete kill) scale relative to the non-treated 28 days after treatment. After all control data had been collected, aboveground biomass was harvested from each plastic conical container at the soil line using scissors, dried at 100 °C for 3 days, and weighed.
Treatments were arranged as a 9 × 4 factorial with nine plant selections (i.e., RP1–RP8, S) and four herbicide treatments (i.e., foramsulfuron, imazamox, simazine, non-treated) in a completely randomized design with four replications and repeated in time and space during February 2015. Plants were the same age during both experimental runs.

[6] = concentration for 50 % inhibition of WT enzyme, max inhibitor concentration 1.00 × 10^−04 M, read-out: WT sensitivity [IC50]

Compound	IC50 [1, 6] [nM]	Resistance factor A205F [2]	Resistance factor A205V [3]	Resistance factor W574L [4]	IC50 [1] [nM]	other results
COc1ncc(F)c2nc(S(=O)(=O)Nc3c(F)cccc3F)nn12 [Florasulam]	3.43	1	89	370	–	–
COc1cc(OC)nc(Sc2cccc(Cl)c2C(=O)O)n1 [Pyrithiobac]	–	306	433	134,838	0.742	–
COc1cc(OC)nc(NC(=O)NS(=O)(=O)c2cc(CNS(C)(=O)=O)ccc2C(=O)O)n1 [Mesosulfuron]	1.33	293	16	104	–	–
COc1cc(OC)nc(Oc2cccc(Oc3nc(OC)cc(OC)n3)c2C(=O)O)n1 [Bispyribac]	1.58	7	11	7944	–	–
COc1cc(OC)n2nc(S(=O)(=O)Nc3c(Cl)ccc(C)c3Cl)nc2n1 [Metosulam]	–	1656	34	107	0.441	–
COc1nc(NC(=O)NS(=O)(=O)c2ccccc2C(F)(F)F)nc(C(F)(F)F)n1 [Tritosulfuron]	18.7	5356	37	167	–	–
COCc1cnc(C2=NC(C)(C(C)C)C(=O)N2)c(C(=O)O)c1 (centres unmarked) [Imazamox]	–	–	34	34	2930	annual bluegrass control, resistant plants with the exception of RP6 ([5]; 28 days after treatment, summary over RP1–RP5, RP7, RP8): ≤ 11%; Annual bluegrass biomass RP1 ([5]; RP1, aboveground dry biomass 28 days after treatment, foramsulfuron 29, imazamox 140, simazine 1120 g ha^-1): 84 % of nontreated control; Annual bluegrass control RP1 ([5]; RP1 plants, 28 days after treatment, 2 to 3 leaf stage, foramsulfuron 29, imazamox 140, simazine 1120 g ha^−1): 2%; Annual bluegrass biomass RP2 ([5]; RP2, aboveground dry biomass 28 days after treatment, foramsulfuron 29, imazamox 140, simazine 1120 g ha^-1): 66 % of nontreated control; Annual bluegrass control RP2 ([5]; RP2 plants, 28 days after treatment, 2 to 3 leaf stage, foramsulfuron 29, imazamox 140, simazine 1120 g ha^−1): 0%; Annual bluegrass biomass RP3 ([5]; RP3, aboveground dry biomass 28 days after treatment, foramsulfuron 29, imazamox 140, simazine 1120 g ha^-1): 94 % of nontreated control; Annual bluegrass control RP3 ([5]; RP3 plants, 28 days after treatment, 2 to 3 leaf stage, foramsulfuron 29, imazamox 140, simazine 1120 g ha^−1): 0%; Annual bluegrass biomass RP4 ([5]; RP4, aboveground dry biomass 28 days after treatment, foramsulfuron 29, imazamox 140, simazine 1120 g ha^-1): 55 % of nontreated control; Annual bluegrass control RP4 ([5]; RP4 plants, 28 days after treatment, 2 to 3 leaf stage, foramsulfuron 29, imazamox 140, simazine 1120 g ha^−1): 0%; Annual bluegrass biomass RP5 ([5]; RP5, aboveground dry biomass 28 days after treatment, foramsulfuron 29, imazamox 140, simazine 1120 g ha^-1): 49 % of nontreated control; Annual bluegrass control RP5 ([5]; RP5 plants, 28 days after treatment, 2 to 3 leaf stage, foramsulfuron 29, imazamox 140, simazine 1120 g ha^−1): 3%; Annual bluegrass biomass RP6 ([5]; RP6, aboveground dry biomass 28 days after treatment, foramsulfuron 29, imazamox 140, simazine 1120 g ha^-1): 70 % of nontreated control; Annual bluegrass control RP6 ([5]; RP6 plants, 28 days after treatment, 2 to 3 leaf stage, foramsulfuron 29, imazamox 140, simazine 1120 g ha^−1): 16%; Annual bluegrass biomass RP7 ([5]; RP7, aboveground dry biomass 28 days after treatment, foramsulfuron 29, imazamox 140, simazine 1120 g ha^-1): 87 % of nontreated control; Annual bluegrass control RP7 ([5]; RP7 plants, 28 days after treatment, 2 to 3 leaf stage, foramsulfuron 29, imazamox 140, simazine 1120 g ha^−1): 4%; Annual bluegrass biomass RP8 ([5]; RP8, aboveground dry biomass 28 days after treatment, foramsulfuron 29, imazamox 140, simazine 1120 g ha^-1): 86 % of nontreated control; Annual bluegrass control RP8 ([5]; RP8 plants, 28 days after treatment, 2 to 3 leaf stage, foramsulfuron 29, imazamox 140, simazine 1120 g ha^−1): 0%; Annual bluegrass control S ([5]; susceptible (S) plants, 28 days after treatment, 2 to 3 leaf stage, foramsulfuron 29, imazamox 140, simazine 1120 g ha^−1): 93%; Annual bluegrass biomass S ([5]; susceptible (S), aboveground dry biomass 28 days after treatment, foramsulfuron 29, imazamox 140, simazine 1120 g ha^-1): 3 % of nontreated control
COc1nn(C(=O)NS(=O)(=O)c2ccccc2OC(F)(F)F)c(=O)n1C [Flucarbazone]	24.5	441	2	7	–	–
CCCOc1nn(C(=O)[N-]S(=O)(=O)c2ccccc2C(=O)OC)c(=O)n1C.[Na+] [Propoxycarbazone]	–	1185	20	309	–	–
COc1cc(OC)nc(Sc2cccc3c2C(=O)OC3C)n1 (centres unmarked) [Pyriftalid]	20000	5	5	5	–	–
COc1cc(OC)nc(NC(=O)NS(=O)(=O)c2ncccc2C(=O)N(C)C)n1 [Nicosulfuron]	–	1401	30	35	71.4	–
COc1nn(C(=O)NS(=O)(=O)c2c(C(=O)O)csc2C)c(=O)n1C [Thiencarbazone]	24.8	62	8	16	–	–
